Measured values taken from PMC4445981, “The glutamate transport inhibitor DL-Threo-β-Benzyloxyaspartic acid (DL-TBOA) differentially affects SN38- and oxaliplatin-induced death of drug-resistant colorectal cancer cells” (BMC Cancer, 2015).

What was measured:
p53 = p53 protein level by Western blotting; format: cell-based, human; settings: 24 h; for p53 protein level: 0.8 μM SN38 or 20 μM oxaliplatin
Experimental: Fig. 5 Effects of DL-TBOA on cell death and survival parameters after chemotherapy treatment. Parental and drug-resistant HCT116 (a) and LoVo (b) cell lines were exposed to SN38 (0.8 μM) or oxaliplatin (20 μM), alone or in combination with 350 μM DL-TBOA as indicated, for 24 h. Equal amounts of protein per lane were separated by SDS-PAGE and the protein level of p53 was determined by Western blotting. Top: Representative Western blots, with p150 as loading control. Bottom: Densitometric quantifications based on 3 independent experiments per condition. Data are means with S.E.M. error bars of 3 independent experiments. *) p < 0.05, **) p < 0.01, ***) p < 0.001,****) p < 0.0001 compared to the control group without drug or TBOA treatment; Two-way ANOVA with Tukey post-test
(§1) Cells were grown to a confluence of 60-80 % and treated with chemotherapy, siRNA- or plasmid transfection as indicated. Cells were washed once in PBS, lysed in lysis buffer (1 % SDS, 0.1 M Tris pH 7.5, and 1 mM Na3VO4), sonicated, and protein content determined (DC assay, BioRad). Lysates were mixed 2:1with NuPage LDS sample buffer (Invitrogen). SDS-PAGE was carried out in NOVEX chambers with NuPAGE 10 % Bis-Tris gels under reducing and denaturing conditions, using BenchMark protein ladder (Invitrogen), and 15 μg protein per lane. Proteins were transferred to PVDF membranes, which were Ponceau S stained, blocked for 1 h at 37 °C in 5 % nonfat dry milk in TBST (0.01 M Tris/HCl, 0.15 M NaCl, 0.1 % Tween 20, pH 7.4), incubated overnight at 4 °C with primary antibodies diluted in blocking buffer, washed in TBST, incubated with secondary antibodies for 1 h, washed in TBST, and developed using BCIP/NBT (KPL). Bands were scanned and quantified using UN-SCAN-IT (Silk Scientific).

[1] = test system: parental and drug-resistant HCT116 and LoVo cell lines; test: MTT viability assay, HCT116 and LoVo cell lines; format: cell-based, human
Experimental: Fig. 2 DL-TBOA augments SN38-induced death in SN38-resistant cells, but protects oxaliplatin-resistant cells from oxaliplatin-induced death. Parental and drug-resistant HCT116 and LoVo cell lines seeded in 96-well dishes were exposed to SN38 (0.1 or 0.8 μM) or oxaliplatin (0.8 or 20 μM), alone or in combination with 70 or 350 μM DL-TBOA as indicated, for 48 h. Viability was assessed by MTT assay. a-b Parental HCT116 cells, (c) SN38 resistant HCT116 cells, (d) Oxaliplatin-resistant HCT116 cells, (e-f) Parental LoVo cells, (g) SN38 resistant LoVo cells, (h) Oxaliplatin-resistant LoVo cells. Data are means with S.E.M. error bars of 3 independent experiments. *) p < 0.05, **) p < 0.01, ***) p < 0.001 compared to the control group without drug or TBOA treatment; #) p < 0.05 compared to controls without TBOA treatment. One-way ANOVA followed by Dunnett post-test
Cells were seeded at appropriate density (LoVo 10,000, and HCT116 5000 cells /100 μl) in growth medium in 96-well plates. Next day, cells were treated with inhibitors and/or chemotherapy in a total volume of 200 μl in growth medium and incubated for 48 h at 37 °C, 5 % CO2. The medium was replaced with 100 μl of 0.5 mg/ml 3-(4,5-dimethylthiazol-2-yl)-2,5-diphenyltetrazolium bromide (MTT) in growth medium. The reaction was stopped 1.5-2.5 h later by addition of 100 μl 20 % SDS in 0.02 M HCl, and incubation overnight to allow complete lysis of cells and formazan crystals. Absorbance was measured in an ELISA plate reader (Thermo Scientific MultiScan FC) at 550 nm. Data were background subtracted and % viability relative to controls calculated.

PARP-1 cleavage = PARP-1 cleavage by Western blotting; format: cell-based, human; settings: DL-TBOA; HCT116 and LoVo cells
Experimental: as §1
Supplementary file 12885_2015_1405_MOESM3_ESM.tiff: Additional file 3: Figure S3. […] Equal amounts of protein per lane were separated by SDS-PAGE and the protein levels of p21, and PARP-1 (full-length and cleaved, the latter indicated by arrowheads) were determined by Western blotting. […] Bottom: Densitometric quantifications based on 3 independent experiments per condition. […]

SLC1A1 = settings: depending on the system and experimental setup; cited from earlier work

SMILES	p53 protein level (p53; SN38-resistant HCT116 cells)	p53 protein level (p53; parental HCT116 cells)	viable cells remaining ([1]; parental HCT116 and LoVo, 48 h, 20 μM oxaliplatin (highest dose tested))	effect on chemotherapy-induced p53 induction (p53; 350 μM DL-TBOA concomitant to SN38 or oxaliplatin, parental and drug-resistant HCT116 and LoVo)	effect on cellular level of cleaved PARP-1 (PARP-1 cleavage)	effect on SN38-induced loss of viability ([1]; SN38-resistant HCT116 and LoVo cells, concomitant DL-TBOA 70 or 350 μM, 48 h)	effect on oxaliplatin-induced loss of viability ([1]; both parental cell lines, DL-TBOA 70 or 350 μM concomitantly with oxaliplatin, 48 h)	effect on viability of untreated cells ([1]; no chemotherapeutic, DL-TBOA 70 or 350 μM, 48 h, all cell lines (Fig. 2a-h))	effect on oxaliplatin-induced loss of viability ([1]; oxaliplatin-resistant HCT116 and LoVo cells, DL-TBOA 70 or 350 μM, 48 h)	effect on SN38-induced loss of viability ([1]; parental cell lines, DL-TBOA 70 or 350 μM concomitantly with SN38, 48 h)	IC50 values in uptake assays (SLC1A1)
O=C(O)C(=O)O.[NH-][C@@H]1CCCC[C@H]1[NH-].[Pt+2] [oxaliplatin]	retained	markedly induced	about 20%	–	–	–	–	–	–	–	–
N[C@H](C(=O)O)[C@H](OCc1ccccc1)C(=O)O (racemic) [TBOA, DL-Threo-β-Benzyloxyaspartic acid]	–	–	–	apparent decrease in p53 induction	did not significantly alter	concentration-dependently enhanced SN38-induced loss of viability	counteracted the effect of oxaliplatin on viability	small decrease in viability	reversed oxaliplatin-induced loss of viability	slightly exacerbated the SN38-induced loss of viability	low micromolar range
